Measurements taken from patent publication US20230233569A1 (Revolution Medicines, Inc., priority 2020, published 2023).
Where two headings read alike, the source gives them in different places.

What was measured:
[1] = molecular target: NRAS Q61R (Homo sapiens, UniProt P01111+P62937, Q61R); test: Disruption of BRAF RBD interaction with Ras (FRET / MOA assay, with Cyclophilin A); assay type: biochemical; details: NRAS Q61R; read-out: NRAS Q61R FRET data IC50
Summary of the method: (§1)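 TR-FRET in 25 mM HEPES pH 7.3, 100 mM NaCl, 5 mM MgCl2, 0.1% BSA: 25 μM Cyclophilin A, 12.5 nM His6-Ras-GMPPNP, 50 nM GST-BRAF RBD with compound (10-point 3-fold series from 30 μM), 3 h at 25° C. Anti-His Eu/anti-GST APC added, 1.5 h more; IC50 from decreased FRET ratio versus DMSO.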

[2] = molecular target: KRAS Q61H (Homo sapiens, UniProt P01116+P62937, Q61H); test: as above; assay type: biochemical; details: KRAS Q61H; read-out: KRAS Q61H FRET data IC50
Chain of KRAS Q61H (P01116 1-169 isoform P01116-2 Q61H limits assumed): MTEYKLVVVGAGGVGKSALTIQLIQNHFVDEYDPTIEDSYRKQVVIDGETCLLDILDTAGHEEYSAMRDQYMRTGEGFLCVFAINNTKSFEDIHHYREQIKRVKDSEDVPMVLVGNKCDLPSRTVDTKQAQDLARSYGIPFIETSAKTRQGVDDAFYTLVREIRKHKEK
Chain of KRAS Q61H (P62937 whole entry): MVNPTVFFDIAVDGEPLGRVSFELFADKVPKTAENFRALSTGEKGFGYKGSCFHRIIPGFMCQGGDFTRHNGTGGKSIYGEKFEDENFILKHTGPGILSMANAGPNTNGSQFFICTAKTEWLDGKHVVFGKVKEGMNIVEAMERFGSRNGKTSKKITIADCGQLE
Summary of the method: as §1

[3] = molecular target: NRAS WT (Homo sapiens, UniProt P01111+P62937); test: as above; assay type: biochemical; details: NRAS WT; read-out: NRAS WT FRET data IC50
Chain of NRAS WT (P01111 whole entry): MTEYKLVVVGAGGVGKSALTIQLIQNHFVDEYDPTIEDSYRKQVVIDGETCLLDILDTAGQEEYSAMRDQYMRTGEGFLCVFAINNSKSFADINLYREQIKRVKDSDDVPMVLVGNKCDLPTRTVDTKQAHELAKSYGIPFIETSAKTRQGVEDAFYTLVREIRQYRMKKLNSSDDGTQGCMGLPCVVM
Chain of NRAS WT (P62937 whole entry): as the sequence (P62937 whole entry) above
Summary of the method: as §1

[4] = molecular target: NRAS Q61K (Homo sapiens, UniProt P01111+P62937, Q61K); test: as above; assay type: biochemical; details: NRAS Q61K; read-out: NRAS Q61K FRET data IC50
Chain of NRAS Q61K (P01111 whole entry Q61K): as the sequence (P01111 whole entry) above, with Q61K counted along it
Chain of NRAS Q61K (P62937 whole entry): as the sequence (P62937 whole entry) above
Summary of the method: as §1

[5] = system: NCI-H358 (K-Ras G12C); test: CellTiter-Glo cell viability assay, 5-day treatment; assay type: cell-based; details: Homo sapiens, NCI-H358, 120 h, 5-day treatment; read-out: H358 Cell Viability assay data (K-Ras G12C, IC50)
Summary of the method: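 Five-day compound treatment of plated cells; luminescent read after ~30 min at RT. Percent-of-DMSO data fit to a four-parameter logistic model.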

[6] = molecular target: KRAS G13D (Homo sapiens, UniProt P01116+P62937, G13D); test: Disruption of BRAF RBD interaction with Ras (FRET / MOA assay, with Cyclophilin A); assay type: biochemical
Chain of KRAS G13D (P01116 1-169 isoform P01116-2 G13D limits assumed): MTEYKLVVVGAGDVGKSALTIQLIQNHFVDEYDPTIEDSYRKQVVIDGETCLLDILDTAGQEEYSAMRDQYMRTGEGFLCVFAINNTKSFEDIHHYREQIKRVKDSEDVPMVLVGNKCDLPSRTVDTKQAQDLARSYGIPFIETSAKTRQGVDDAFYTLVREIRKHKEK
Chain of KRAS G13D (P62937 whole entry): as the sequence (P62937 whole entry) above
Summary of the method: (§2)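 TR-FRET: nucleotide-loaded K-Ras mutant or WT with Cyclophilin A and BRAF RBD, compound 10-point 3-fold from 30 μM final, 3 h at 25° C, then anti-His Eu (10 nM) and anti-GST APC (50 nM) for 1.5 h. Decreased FRET ratio versus DMSO gives IC50.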

[7] = molecular target: KRAS G12S (Homo sapiens, UniProt P01116+P62937, G12S); test: as above; assay type: biochemical
Chain of KRAS G12S (P01116 1-169 isoform P01116-2 G12S limits assumed): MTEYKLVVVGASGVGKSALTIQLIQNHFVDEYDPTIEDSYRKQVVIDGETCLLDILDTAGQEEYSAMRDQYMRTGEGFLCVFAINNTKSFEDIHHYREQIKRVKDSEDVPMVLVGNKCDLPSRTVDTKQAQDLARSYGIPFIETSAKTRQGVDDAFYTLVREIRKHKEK
Chain of KRAS G12S (P62937 whole entry): as the sequence (P62937 whole entry) above
Summary of the method: as §2

[8] = molecular target: KRAS G13C (Homo sapiens, UniProt P01116+P62937, G13C); test: as above; assay type: biochemical
Chain of KRAS G13C (P01116 1-169 isoform P01116-2 G13C): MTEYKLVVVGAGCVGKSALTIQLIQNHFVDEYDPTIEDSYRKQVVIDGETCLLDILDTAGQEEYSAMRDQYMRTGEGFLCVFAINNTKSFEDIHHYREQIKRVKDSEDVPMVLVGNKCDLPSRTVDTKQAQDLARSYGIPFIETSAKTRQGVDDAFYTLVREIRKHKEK
Chain of KRAS G13C (P62937 whole entry): as the sequence (P62937 whole entry) above
Summary of the method: as §2

[9] = molecular target: KRAS G12V (Homo sapiens, UniProt P01116+P62937, G12V); test: as above; assay type: biochemical
Chain of KRAS G12V (P01116 1-169 isoform P01116-2 G12V limits assumed): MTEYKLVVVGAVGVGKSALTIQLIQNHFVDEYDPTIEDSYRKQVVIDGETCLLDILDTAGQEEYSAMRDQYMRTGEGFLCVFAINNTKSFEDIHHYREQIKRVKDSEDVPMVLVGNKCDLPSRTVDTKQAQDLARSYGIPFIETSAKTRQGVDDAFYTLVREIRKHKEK
Chain of KRAS G12V (P62937 whole entry): as the sequence (P62937 whole entry) above
Summary of the method: as §2

[10] = molecular target: NRAS G12C (Homo sapiens, UniProt P01111+P62937, G12C); test: as above; assay type: biochemical
Chain of NRAS G12C (P01111 whole entry G12C): as the sequence (P01111 whole entry) above, with G12C counted along it
Chain of NRAS G12C (P62937 whole entry): as the sequence (P62937 whole entry) above

[11] = molecular target: KRAS G12D (Homo sapiens, UniProt P01116+P62937, G12D); test: as above; assay type: biochemical
Chain of KRAS G12D (P01116 1-169 isoform P01116-2 G12D limits assumed): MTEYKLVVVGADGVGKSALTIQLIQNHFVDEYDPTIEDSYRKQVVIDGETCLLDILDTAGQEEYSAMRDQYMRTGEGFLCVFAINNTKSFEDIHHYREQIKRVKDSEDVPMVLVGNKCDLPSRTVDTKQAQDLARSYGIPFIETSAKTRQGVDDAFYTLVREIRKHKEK
Chain of KRAS G12D (P62937 whole entry): as the sequence (P62937 whole entry) above
Summary of the method: as §2

[12] = molecular target: KRAS G12C (Homo sapiens, UniProt P01116+P62937, G12C); test: as above; assay type: biochemical
Chain of KRAS G12C (P01116 1-169 isoform P01116-2 G12C): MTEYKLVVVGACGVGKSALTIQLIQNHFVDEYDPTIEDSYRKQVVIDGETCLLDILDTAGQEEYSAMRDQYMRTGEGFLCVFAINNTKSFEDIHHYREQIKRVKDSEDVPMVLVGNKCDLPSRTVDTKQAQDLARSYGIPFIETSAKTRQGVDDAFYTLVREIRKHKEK
Chain of KRAS G12C (P62937 whole entry): as the sequence (P62937 whole entry) above
Summary of the method: as §2

[13] = molecular target: KRAS WT (Homo sapiens, UniProt P01116+P62937); test: as above; assay type: biochemical
Chain of KRAS WT (P01116 1-169 isoform P01116-2 limits assumed): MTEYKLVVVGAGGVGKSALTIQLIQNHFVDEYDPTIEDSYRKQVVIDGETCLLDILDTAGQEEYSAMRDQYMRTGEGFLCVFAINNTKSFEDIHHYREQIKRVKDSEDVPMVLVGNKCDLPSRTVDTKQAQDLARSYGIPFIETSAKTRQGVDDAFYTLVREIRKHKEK
Chain of KRAS WT (P62937 whole entry): as the sequence (P62937 whole entry) above
Summary of the method: as §2

[14] = KRAS G13D, read-out: KRAS G13D FRET data IC50
[15] = read-out: KRAS G12S FRET data, IC50
[16] = read-out: KRAS G13C FRET data, IC50
[17] = KRAS G12V, read-out: KRAS G12V FRET data IC50
[18] = NRAS G12C, read-out: NRAS G12C FRET data IC50
[19] = read-out: KRAS G12D FRET data, IC50
[20] = read-out: KRAS G12C FRET data, IC50
[21] = KRAS WT, read-out: KRAS WT FRET data IC50

Chain of NRAS Q61R (P01111 whole entry Q61R): as the sequence (P01111 whole entry) above, with Q61R counted along it
Chain of NRAS Q61R (P62937 whole entry): as the sequence (P62937 whole entry) above

Row | IC50 [1] | IC50 [2] | IC50 [3] | IC50 [4] | IC50 [5] | Compound | also measured
1 | 10 to 100 nM | < 10 nM | 10 to 100 nM | < 10 nM | – | CCn1c(-c2cccnc2[C@H](C)OC)c2c3cc(ccc31)-c1csc(n1)C[C@H](NC(=O)[C@H](C(C)C)N(C)C(=O)N1[C@H](C)COC[C@H]1C)C(=O)N1CCC[C@H](N1)C(=O)OCC(C)(C)C2 (atropisomer, axis not shown) [Example A275] | –
2 | 10 to 100 nM | – | 10 to 100 nM | 10 to 100 nM | < 10 nM | CCn1c(-c2cccnc2[C@H](C)OC)c2c3cc(ccc31)-c1csc(n1)C[C@H](NC(=O)[C@H](C(C)C)N(C)C(=O)N1CC([C@@H](C)OC)C1)C(=O)N1CCC[C@H](N1)C(=O)OCC(C)(C)C2 (atropisomer, axis not shown) [Example A278] | –
3 | 100 to 1000 nM | 10 to 100 nM | 100 to 1000 nM | 10 to 100 nM | < 10 nM | CCn1c(-c2cccnc2[C@H](C)OC)c2c3cc(ccc31)-c1csc(n1)C[C@H](NC(=O)[C@H](C(C)C)N(C)C(=O)N1CC(OC)C1)C(=O)N1CCC[C@H](N1)C(=O)OCC(C)(C)C2 (racemic) [Example A205] | –

Second part, the compound before the results:

Row | Compound | IC50 [1] | IC50 [2] | IC50 [3] | IC50 [4] | IC50 [5] | also measured
4 | CCn1c(-c2cc(N3CCN(C)CC3)cnc2[C@H](C)OC)c2c3cc(ccc31)-c1csc(n1)C[C@H](NC(C)=O)C(=O)N1CCC[C@H](N1)C(=O)OCC(C)(C)C2 (atropisomer, axis not shown) [Example A340] | > 10000 nM | > 10000 nM | > 10000 nM | > 10000 nM | – | IC50 [6, 14]: > 10000 nM; IC50 [7, 15]: > 10000 nM; IC50 [8, 16]: > 10000 nM; IC50 [9, 17]: > 10000 nM; IC50 [10, 18]: > 10000 nM; IC50 [11, 19]: > 10000 nM; IC50 [12, 20]: > 10000 nM; IC50 [13, 21]: > 10000 nM
5 | CCn1c(-c2cnccc2COC)c2c3cc(ccc31)-c1cc(O)cc(c1)C[C@H](NC(=O)[C@H](C(C)C)N(C)C(=O)[C@H]1CCN(S(=O)(=O)N3CC(O)C3)C1)C(=O)N1CCC[C@H](N1)C(=O)OCC(C)(C)C2 [Example A37, (2S)—N-[(8S,14S)-22-ethyl-4-hydroxy-21-[4-(methoxymethyl)pyridin-3-yl]-18,18-dimethyl-9,15-dioxo-16-oxa-10,22,28-triazapentacyclo[18.5.2.1^2,6.1^10,14.0^23,27]nonacosa-1(26),2,4,6(29),20,23(27),24-heptaen-8-yl]-2-{1-[(3S)-1-[(3-hydroxyazetidin-1-yl)sulfonyl]pyrrolidin-3-yl]-N-methylformamido}-3-methylbutanamide] | 1000 to 10000 nM | 10 to 100 nM | 100 to 1000 nM | 1000 to 10000 nM | 1000 to 10000 nM | IC50 ([6]; KRAS G13D FRET data IC50, KRAS G13D): 1000 to 10000 nM; IC50 ([7]; KRAS G12S FRET data, IC50): 100 to 1000 nM; IC50 ([8]; KRAS G13C FRET data, IC50): 100 to 1000 nM; IC50 ([9]; KRAS G12V FRET data IC50, KRAS G12V): 100 to 1000 nM; IC50 ([10]; NRAS G12C FRET data IC50, NRAS G12C): 100 to 1000 nM; IC50 ([11]; KRAS G12D FRET data, IC50): > 10000 nM; IC50 ([12]; KRAS G12C FRET data, IC50): 100 to 1000 nM; IC50 ([13]; KRAS WT FRET data IC50, KRAS WT): 100 to 1000 nM
6 | CCn1c(-c2cnccc2COC)c2c3cc(ccc31)-c1cc(O)cc(c1)C[C@H](NC(=O)[C@H](C(C)C)N(C)C(=O)c1ncco1)C(=O)N1CCC[C@H](N1)C(=O)OCC(C)(C)C2 [Example A38] | 100 to 1000 nM | 10 to 100 nM | 100 to 1000 nM | 100 to 1000 nM | 1000 to 10000 nM | IC50 [6, 14]: 100 to 1000 nM; IC50 [7, 15]: 100 to 1000 nM; IC50 [8, 16]: 1000 to 10000 nM; IC50 [9, 17]: 100 to 1000 nM; IC50 [10, 18]: 100 to 1000 nM; IC50 [11, 19]: 1000 to 10000 nM; IC50 [12, 20]: 100 to 1000 nM; IC50 [13, 21]: 100 to 1000 nM
7 | CCn1c(-c2cccnc2[C@H](C)OC)c2c3cc(ccc31)-c1cc(O)cc(c1)C[C@H](NC(=O)[C@@H]1[C@H](C)CCN1C(C)=O)C(=O)N1CCC[C@H](N1)C(=O)OCC(C)(C)C2 [Example A144] | 1000 to 10000 nM | 100 to 1000 nM | 100 to 1000 nM | 100 to 1000 nM | – | –
